# ChEMBL document CHEMBL1126959, “HMG-CoA reductase inhibitors: design, synthesis, and biological activity of tetrahydroindazole-substituted 3,5-dihydroxy-6-heptenoic acid sodium salts” (J Med Chem, 1993)
# How the values were obtained:
# HepG2 [1] = test: Tested for ability to inhibit incorporation of [14C]acetate into cholesterol in cultured human hepatoma (HEP-G2) cells; 0.56-2.2; type: functional, cell-based
# [2] = biological target: T1, 3-hydroxy-3-methylglutaryl-coenzyme A reductase (Rattus norvegicus, UniProt P51639); test: Inhibitory activity against partially purified rat liver HMG-CoA reductase in vitro; 0.07-0.27
# T1 sequence (P51639 whole entry): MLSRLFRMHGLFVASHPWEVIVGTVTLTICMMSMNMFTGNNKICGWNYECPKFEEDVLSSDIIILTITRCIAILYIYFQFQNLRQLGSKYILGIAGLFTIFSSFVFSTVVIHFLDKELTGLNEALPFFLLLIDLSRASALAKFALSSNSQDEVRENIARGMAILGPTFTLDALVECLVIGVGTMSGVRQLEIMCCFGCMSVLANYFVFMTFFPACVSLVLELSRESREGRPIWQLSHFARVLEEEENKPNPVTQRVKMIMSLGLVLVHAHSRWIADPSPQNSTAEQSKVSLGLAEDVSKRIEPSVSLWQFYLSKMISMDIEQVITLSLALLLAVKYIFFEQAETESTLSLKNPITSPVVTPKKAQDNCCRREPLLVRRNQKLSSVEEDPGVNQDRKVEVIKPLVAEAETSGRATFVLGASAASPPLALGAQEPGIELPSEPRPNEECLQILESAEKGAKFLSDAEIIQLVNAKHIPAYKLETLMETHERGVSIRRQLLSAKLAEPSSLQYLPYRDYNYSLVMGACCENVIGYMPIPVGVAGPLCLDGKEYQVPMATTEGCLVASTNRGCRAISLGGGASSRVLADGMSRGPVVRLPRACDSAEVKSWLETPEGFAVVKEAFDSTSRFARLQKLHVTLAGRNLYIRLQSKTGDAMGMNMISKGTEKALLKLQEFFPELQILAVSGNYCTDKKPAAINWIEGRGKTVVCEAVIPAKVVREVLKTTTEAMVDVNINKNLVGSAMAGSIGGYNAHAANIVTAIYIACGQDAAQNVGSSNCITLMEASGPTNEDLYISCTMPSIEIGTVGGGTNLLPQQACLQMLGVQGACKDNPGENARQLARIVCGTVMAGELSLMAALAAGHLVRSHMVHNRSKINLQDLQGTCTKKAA
# HepG2 [3] = test: Tested for ability to inhibit incorporation of [14C]acetate into cholesterol in cultured human hepatoma (HEP-G2) cells; 0.31-2.4; type: functional, cell-based
# [4] = biological target: T1, 3-hydroxy-3-methylglutaryl-coenzyme A reductase; test: Inhibitory activity against partially purified rat liver HMG-CoA reductase in vitro; 0.12-0.21
# [5] = biological target: T1, 3-hydroxy-3-methylglutaryl-coenzyme A reductase; test: Inhibitory activity against partially purified rat liver HMG-CoA reductase in vitro; 2.1-54
# HepG2 [6] = test: Tested for ability to inhibit incorporation of [14C]acetate into cholesterol in cultured human hepatoma (HEP-G2) cells; 1.3-2.3; type: functional, cell-based
# [7] = biological target: T1, 3-hydroxy-3-methylglutaryl-coenzyme A reductase; test: Inhibitory activity against partially purified rat liver HMG-CoA reductase in vitro; 0.41-0.73
# [8] = biological target: T1, 3-hydroxy-3-methylglutaryl-coenzyme A reductase; test: Inhibitory activity against partially purified rat liver HMG-CoA reductase in vitro; 0.0040-0.053
# HepG2 [9] = test: Tested for ability to inhibit incorporation of [14C]acetate into cholesterol in cultured human hepatoma (HEP-G2) cells; 0.15-0.33; type: functional, cell-based
# HepG2 [10] = test: Tested for ability to inhibit incorporation of [14C]acetate into cholesterol in cultured human hepatoma (HEP-G2) cells; 0.0071-23; type: functional, cell-based
# [11] = biological target: T1, 3-hydroxy-3-methylglutaryl-coenzyme A reductase; test: Inhibitory activity against partially purified rat liver HMG-CoA reductase in vitro; 0.16-0.24
# HepG2 [12] = test: Tested for ability to inhibit incorporation of [14C]acetate into cholesterol in cultured human hepatoma (HEP-G2) cells; 0.013-0.81; type: functional, cell-based
# [13] = biological target: T1, 3-hydroxy-3-methylglutaryl-coenzyme A reductase; test: Inhibitory activity against partially purified rat liver HMG-CoA reductase in vitro; 0.0015-0.0049
# [14] = biological target: T1, 3-hydroxy-3-methylglutaryl-coenzyme A reductase; test: Inhibitory activity against partially purified rat liver HMG-CoA reductase in vitro; 0.027-0.046
# HepG2 [15] = test: Tested for ability to inhibit incorporation of [14C]acetate into cholesterol in cultured human hepatoma (HEP-G2) cells; 0.44-3.0; type: functional, cell-based
# [16] = biological target: T1, 3-hydroxy-3-methylglutaryl-coenzyme A reductase; test: Inhibitory activity against partially purified rat liver HMG-CoA reductase in vitro; 2.6-4.8
# [17] = biological target: T1, 3-hydroxy-3-methylglutaryl-coenzyme A reductase; test: Inhibitory activity against partially purified rat liver HMG-CoA reductase in vitro; 1.2-3.3
# HepG2 [18] = test: Tested for ability to inhibit incorporation of [14C]acetate into cholesterol in cultured human hepatoma (HEP-G2) cells; 0.046-0.17; type: functional, cell-based
# [19] = biological target: T1, 3-hydroxy-3-methylglutaryl-coenzyme A reductase; test: Inhibitory activity against partially purified rat liver HMG-CoA reductase in vitro; 0.021-0.036
# HepG2 [20] = test: Tested for ability to inhibit incorporation of [14C]acetate into cholesterol in cultured human hepatoma (HEP-G2) cells; 0.051-0.12; type: functional, cell-based
# [21] = biological target: T1, 3-hydroxy-3-methylglutaryl-coenzyme A reductase; test: Inhibitory activity against partially purified rat liver HMG-CoA reductase in vitro; 0.038-0.18
# HepG2 [22] = test: Tested for ability to inhibit incorporation of [14C]acetate into cholesterol in cultured human hepatoma (HEP-G2) cells; 0.70-1.4; type: functional, cell-based
# HepG2 [23] = test: Tested for ability to inhibit incorporation of [14C]acetate into cholesterol in cultured human hepatoma (HEP-G2) cells; 0.019-0.14; type: functional, cell-based
# [24] = biological target: T1, 3-hydroxy-3-methylglutaryl-coenzyme A reductase; test: Inhibitory activity against partially purified rat liver HMG-CoA reductase in vitro; 0.0073-0.017
# [25] = biological target: T1, 3-hydroxy-3-methylglutaryl-coenzyme A reductase; test: Inhibitory activity against partially purified rat liver HMG-CoA reductase in vitro; 1.9-5.3
structure (smiles),measurement,setting,value
O=C(O)C[C@H](O)C[C@H](O)/C=C/c1c2c(nn1-c1ccc(F)cc1)C(Cc1ccc(Cl)cc1)CCC2 (stereo partly specified),IC50,HepG2 [1],1100 nM
same,IC50,[2],140 nM
O=C(O)C[C@H](O)C[C@H](O)/C=C/c1c2c(nn1-c1ccc(F)cc1)C(CCCc1ccccc1)CCC2 (stereo partly specified),IC50,HepG2 [3],870 nM
same,IC50,[4],160 nM
O=C(O)C[C@H](O)C[C@H](O)/C=C/c1c2c(nn1-c1ccc(F)cc1)CCC2,IC50,[5],11000 nM
O=C(O)C[C@H](O)C[C@H](O)/C=C/c1c2c(nn1-c1ccc(F)cc1)C(CCc1ccccc1)CCC2 (stereo partly specified),IC50,HepG2 [6],1700 nM
same,IC50,[7],540 nM
CC(C)c1ccc(CC2CCCc3c2nn(-c2ccc(F)cc2)c3/C=C/[C@@H](O)C[C@@H](O)CC(=O)O)cc1 (stereo partly specified),IC50,[8],40 nM
same,IC50,HepG2 [9],230 nM
O=C(O)C[C@H](O)C[C@H](O)/C=C/c1c2c(nn1-c1ccc(F)cc1)C(Cc1ccc(F)cc1)CCC2 (stereo partly specified),IC50,HepG2 [10],400 nM
same,IC50,[11],200 nM
O=C(O)C[C@H](O)C[C@H](O)/C=C/c1c2c(nn1-c1ccc(F)cc1)C(Cc1ccc(-c3ccccc3)cc1)CCC2 (stereo partly specified),IC50,HepG2 [12],100 nM
same,IC50,[13],3 nM
COc1cccc(CC2CCCc3c2nn(-c2ccc(F)cc2)c3/C=C/[C@@H](O)C[C@@H](O)CC(=O)O)c1 (stereo partly specified),IC50,[14],35 nM
same,IC50,HepG2 [15],1200 nM
O=C(O)C[C@H](O)C[C@H](O)/C=C/c1c2c(nn1-c1ccc(F)cc1)CCCCC2,IC50,[16],3600 nM
CCC1CCCc2c1nn(-c1ccc(F)cc1)c2/C=C/[C@@H](O)C[C@@H](O)CC(=O)O (stereo partly specified),IC50,[17],2000 nM
CC(C)(C)c1ccc(CC2CCCc3c2nn(-c2ccc(F)cc2)c3/C=C/[C@@H](O)C[C@@H](O)CC(=O)O)cc1 (stereo partly specified),IC50,HepG2 [18],88 nM
same,IC50,[8],14 nM
Cc1ccc(CC2CCCc3c2nn(-c2ccc(F)cc2)c3/C=C/[C@@H](O)C[C@@H](O)CC(=O)O)cc1 (stereo partly specified),IC50,[19],28 nM
same,IC50,HepG2 [20],78 nM
O=C(O)C[C@H](O)C[C@H](O)/C=C/c1c2c(nn1-c1ccc(F)cc1)C(C/C=C/c1ccccc1)CCC2 (stereo partly specified),IC50,[21],82 nM
same,IC50,HepG2 [22],1000 nM
CC[C@H](C)C(=O)O[C@H]1C[C@@H](C)C=C2C=C[C@H](C)[C@H](CC[C@@H]3C[C@@H](O)CC(=O)O3)C21 (stereo partly specified),IC50,HepG2 [23],50 nM
same,IC50,[24],9.2 nM
CCCC1CCCc2c1nn(-c1ccc(F)cc1)c2/C=C/[C@@H](O)C[C@@H](O)CC(=O)O (stereo partly specified),IC50,[25],3400 nM
